Assay results: US8299021B2, “Macrocyclic inhibitors of hepatitis C virus replication” (InterMune, Inc., priority 2005, dated 2012)
Like-named read-outs stand apart in the source and are kept apart here.

How the values were obtained:
[1] = target: T1, NS3-NS4 protease (full-length NS3/NS4A-2) (Hepatitis C virus genotype 1a, UniProt P27958); test: NS3-NS4 protease assay / NS3 inhibition assay (RETS1 substrate, fluorescence kinetic read); type: biochemical; conditions: read-out: NS3-NS4 IC50
T1 construct: Recombinant E. coli or Baculovirus full-length NS3 was diluted to 3.33 μM with assay buffer; made in house; host or cells: E. coli or baculovirus (insect cells)

[2] = system: HCV sub-genomic replicon GS4.3 (HuH-7 hepatoma cells); test: Quantitation by ELISA of neomycin phosphotransferase II (NPTII) in the HCV sub-genomic replicon, GS4.3; type: cell-based; conditions: GS4.3 cells, 72 h, read-out: Replicon EC50
Source text: Quantitation by ELISA of the Selectable Marker Protein, Neomycin Phosphotransferase II (NPTII) in the HCV Sub-Genomic Replicon, GS4.3
The HCV sub-genomic replicon (1377/NS3-3′, accession No. AJ242652), stably maintained in HuH-7 hepatoma cells, was created by Lohmann et al. Science 285: 110-113 (1999). The replicon-containing cell culture, designated GS4.3, was obtained from Dr. Christoph Seeger of the Institute for Cancer Research, Fox Chase Cancer Center, Philadelphia, Pa.
GS4.3 cells were maintained at 37° C., 5% CO2, in DMEM (Gibco 11965-092) supplemented with L-glutamine 200 mM (100×) (Gibco25030-081), non-essential amino acids (NEAA)(Biowhittaker 13-114E), heat-inactivated (HI) Fetal Bovine Serum(FBS)(Hyclone SH3007.03) and […] geneticin (G418)(Gibco 10131-035). Cells were sub-divided 1:3 or 4 every 2-3 days.
24 h prior to the assay, GS4.3 cells were collected, counted, and plated in 96-well plates (Costar 3585) at 7500 cells/well in 100 μl standard maintenance medium (above) and incubated in the conditions above. To initiate the assay, culture medium was removed, cells were washed once with PBS (Gibco 10010-023) and 90 μl Assay Medium (DMEM, L-glutamine, NEAA, 10% HI FBS, no G418) was added. Inhibitors were made as a 10× stock in Assay Medium, (3-fold dilutions from 10 μM to […] final concentration, final DMSO concentration 1%), 10 μl were added to duplicate wells, plates were rocked to mix, and incubated as above for 72 h.
An NPTII Elisa kit was obtained from AGDIA, Inc. (Compound direct ELISA test system for Neomycin Phosphotransferase II, PSP 73000/4800). Manufacturer's instructions were followed, with some modifications. 10×PEB-1 lysis buffer was made up to include 500 μM PMSF (Sigma P7626, 50 mM stock in isopropanol). After 72 h incubation, cells were washed once with PBS and 150 μlPEB-1 with PMSF was added per well. Plates were agitated vigorously for 15 minutes, room temperature, then frozen at −70° C. Plates were thawed, lysates were mixed thoroughly, and 100 μl were applied to an NPTII Elisa plate. A standard curve was made. Lysate from DMSO-treated control cells was pooled, serially diluted with PEB-1 with PMSF, and applied to duplicate wells of the ELISA plate, in a range of initial lysate amount of 150 ul-2.5 ul. In addition, 100 μl buffer alone was applied in duplicate as a blank. Plates were sealed and gently agitated at room temperature for 2 h. Following capture incubation, the plates were washed 5×300 μlwith PBS-T (0.5% Tween-20, PBS-T was supplied in the ELISA kit). For detection, a 1× dilution of enzyme conjugate diluent MRS-2 (5×) was made in PBS-T, into which 1:100 dilutions of enzyme conjugates A and B were added, as per instructions. Plates were resealed, and incubated with agitation, covered, room temperature, for 2 h. The washing was then repeated and 100 μlof room temperature TMB substrate was added. After approximately 30 minutes incubation (room temperature, agitation, covered), the reaction was stopped with 50 μl 3M sulfuric acid. Plates were read at 450 nm on a Molecular Devices Versamax plate reader.
Inhibitor effect was expressed as a percentage of DMSO-treated control signal, and inhibition curves were calculated using a 4-parameter equation: y=A+4B-A)/(1+((C/x)^13))), where C is half-maximal activity or EC50.

T1 sequence (P27958 1027-1657): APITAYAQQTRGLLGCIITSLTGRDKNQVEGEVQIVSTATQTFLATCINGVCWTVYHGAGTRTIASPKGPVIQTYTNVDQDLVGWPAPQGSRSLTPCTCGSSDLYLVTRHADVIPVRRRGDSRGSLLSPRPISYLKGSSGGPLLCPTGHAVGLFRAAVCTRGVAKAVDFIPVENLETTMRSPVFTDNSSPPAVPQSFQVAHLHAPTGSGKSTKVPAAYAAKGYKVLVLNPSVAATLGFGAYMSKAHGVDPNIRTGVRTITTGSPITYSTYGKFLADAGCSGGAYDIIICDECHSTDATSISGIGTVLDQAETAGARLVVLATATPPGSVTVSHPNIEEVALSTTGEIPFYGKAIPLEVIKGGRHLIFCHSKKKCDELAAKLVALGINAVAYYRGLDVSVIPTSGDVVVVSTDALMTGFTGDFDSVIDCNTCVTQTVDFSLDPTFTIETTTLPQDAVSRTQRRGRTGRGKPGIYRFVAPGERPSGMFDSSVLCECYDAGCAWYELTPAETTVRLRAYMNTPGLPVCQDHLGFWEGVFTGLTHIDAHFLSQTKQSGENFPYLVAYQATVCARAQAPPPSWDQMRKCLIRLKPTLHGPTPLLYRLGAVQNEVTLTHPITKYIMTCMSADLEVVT

Compound	IC50 [1] [µM]	EC50 ([2]; Hepatitis C virus, Huh-7) [µM]	EC50 [2] [µM]
CC(C)(C)OC(=O)N[C@H]1CCCCC/C=C\[C@@H]2C[C@@]2(C(=O)NS(=O)(=O)C2CC2)NC(=O)C2C[C@@H](OC(=O)NCc3ccc(F)cn3)CN2C1=O (stereo partly shown) [Compound 152]	< 0.1	> 10	–
(2R,6S,13aS,14aR,16aS,Z)-6-(tert-butoxycarbonylamino)-9,9-difluoro-2-(4-fluoroisoindoline-2-carbonyloxy)-5,16-dioxo-1,2,3,5,6,7,8,9,10,11,13 a,14,14a,15,16,16a-hexadecahydrocyclopropa(e)prrolo[1,2-a][1,4]diazacyclopentadecine-14a-carboxylic acid [Compound 1006]	< 0.1	–	< 10
